One experiment deals with T1, MOS1 (Drosophila mauritiana, UniProt Q7JQ07).
T1 construct: involving the full-length Mos1 transposase (MOS1) was recently solved; made in house
The experiment in a line: MOS1 in vitro activities, overall statements of the discussion. The format is biochemical, D. mauritiana. The settings on record: in vitro assays of MOS1 activities; discussion. Here is the method: (§1) In vitro transposition reactions were performed using pBC-3T3 as both the donor DNA and the target, as previously described. Briefly, the basic transposition reaction mixtures contained 10 mM Tris-HCl (pH 9), 50 mM NaCl, 20 mM MgCl2, 0.5 mM EDTA, 5% glycerol, 5 ng/ml BSA, 600 ng pBC-3T3, and 80 nM purified MBP-MOS1 (added last) in a volume of 20 µl. Inhibitors (25 or 10 µM, as specified) or DMSO (2%) were added to the reaction mixtures before the transposase. The reactions were allowed to proceed for 30 min at 30°C. After phenol-chloroform extraction and ethanol precipitation, 10% of the reaction mixture was transformed in electro-competent JM109 E. coli (2 mm cuvette, 1.5 kV in a MicroPulser™BioRad). Appropriate dilutions of each reaction mixture were plated on LB-tetracycline (12.5 µg/ml) agar and LB-chloramphenicol (80 µg/ml) agar to score the transposition rate. The transposition rate was the number of Tet^R colonies divided by the number of Chloram^R plus Tet^R colonies. Each condition was done at least three times in independent experiments.
Basic excision reaction mixtures contained 10 mM Tris-HCl (pH 9), 50 mM NaCl, 20 mM MgCl2, 0.5 mM EDTA, 0.5 mM DTT, 100 ng BSA, 600 ng of super-coiled pBC-3T3, and 80 nM MBP-MOS1 (added last) in a volume of 20 µl. Molecules (25 or 10 µM, as specified) or DMSO (2%) were added to the reaction mixtures before the transposase. The reactions were allowed to proceed at 30°C for 30 min before 2 µl of stop solution (loading buffer) were added. The reaction mixtures were then incubated at 65°C for 10 min. Each reaction was analysed by overnight electrophoresis at 2.7 V/cm on a TAE-buffered 1% agarose gel with ethidium bromide (0.3 mg/ml). After electrophoresis, the gel was photographed on a transilluminator. ImageGauge 4.22 software (Fujifilm) was used to quantify the bands. Each condition was tested at least twice.
These assays were performed using pre-cleaved 3′ITRs (PC-ITR), i.e. ITRs in the configuration expected after excision. Double-strand ITRs were obtained by annealing equimolar amounts of 70-NTS-PN (5′[…]3′) and 70-TS-PC (5′[…]3′) single-strand oligonucleotides. Prior to annealing, the transferred strand (70-TS-PC) was 5′-end labelled using T4 polynucleotide kinase (Promega) and γ-^32P-ATP following the manufacturer's instructions. Oligonucleotides were provided by Eurofins MWG Biotech (Germany) or Eurogentec (Belgium). Reaction mixtures containing 10 mM Tris-HCl (pH 9), 50 mM NaCl, 1 mM DTT, 5% glycerol, 100 ng BSA, 100 nM of labelled PC-ITR and 100 nM MBP-MOS1 in a final volume of 20 µl were incubated at 30°C for 30 min. The pBC plasmid (which contained the cat gene, a hot-spot for Mos1 insertion) was then added to 30 ng/µL along with 5 mM MgCl2. Molecules (25 or 10 µM, as specified) or DMSO (2%) were added to the reaction mixtures along with the target DNA to estimate their effect on integration. Reactions were carried out for 3 hours at 30°C. 0.1 mg/ml proteinase K and 0.1% SDS were added to stop the reaction. DNA products were purified by phenol-chloroform extraction and ethanol precipitated using standard techniques. DNA products were resuspended in DNA loading buffer, then separated onto a 1% agarose gel in 1X TAE (Tris Acetate EDTA) buffer. The gel was dried onto a nitrocellulose membrane (Hybond N+, GE Healthcare), scanned using a Storm, and analysed with ImageQuant software. Signals were quantified using ImageQuant software. Efficiency of integration was calculated as the intensity of the integration signal divided by the intensity of free target signal plus integration signal. Each condition was tested at least twice.
All molecules were also tested in in vitro assays reproducing integration and excision reactions catalysed by MOS1. […] In contrast, E-resveratrol and E-ε-viniferin glucoside, which act more specifically on HIV-1 3′processing reaction, and E-piceid and E-pterostilbene, which is more efficient on the integration reaction, were not active on MOS1.

Experiment [1] addresses T2, HIV-1 IN (Human immunodeficiency virus type 1 group M subtype B, UniProt P04585). The experiment in a line: HIV-1 IN in vitro concerted integration assay (processed or unprocessed donor DNA). The settings on record: for differential effect between reactions: strand transfer / processed donor versus 3′processing / unprocessed donor: comparison of concerted integration and 3′processing results.

The target in experiment [2] is T2, HIV-1 IN. The experiment in a line: HIV-1 IN 3′processing assay. The format is biochemical. The settings on record: 600 nM IN; increasing concentrations.
Another experiment addresses T3, Mos1 transposase (MOS1) (Drosophila mauritiana, UniProt Q7JQ07).
T3 construct: involving the full-length Mos1 transposase (MOS1) was recently solved; made in house
Put plainly: MOS1 in vitro transposition assay (genetic hop experiment). The class given is biochemical, D. mauritiana. On the procedure: The wild type Mos1 transposase (MOS1: 345 amino acids) was produced and purified as a fusion protein linked to the maltose-binding protein by using the pMal-c2 system (New England Biolabs) and following the manufacturer's instructions.
as §1
To identify the natural stilbenes active on MOS1, the 17 molecules were tested using an in vitro genetic “hop” experiment, which is the most sensitive test available as yet. Purified MOS1 was incubated with the pBC-3T3 plasmid, which was used both as the transposon donor and the target plasmid. This plasmid contains the pBR322 tetracycline resistance gene (without promoter) framed by two Mos1 ITRs. This reconstitutes a pseudo-Mos1 element named 3T3. We took advantage of the fact that the cat gene (present in the pBC backbone) is a hotspot for Mos1 integration. […] Transposition events were recovered by bacterial transformation with selection for tetracycline resistance, as a gain-of-function landmark for transposition. […] Controls correspond to assays performed without molecule but with DMSO, which is routinely used as the solvent. […] To confirm the efficiency of the six molecules, they were similarly assayed at 10 µM ( figure 6B ). Since they appeared to be still active at 10 µM, they were further characterized in order to identify the targeted step of the transposition cycle.

Where [3] appears, read: read-out: inhibition of concerted integration.

Structures are written as SMILES.

T1 sequence (Q7JQ07 whole entry): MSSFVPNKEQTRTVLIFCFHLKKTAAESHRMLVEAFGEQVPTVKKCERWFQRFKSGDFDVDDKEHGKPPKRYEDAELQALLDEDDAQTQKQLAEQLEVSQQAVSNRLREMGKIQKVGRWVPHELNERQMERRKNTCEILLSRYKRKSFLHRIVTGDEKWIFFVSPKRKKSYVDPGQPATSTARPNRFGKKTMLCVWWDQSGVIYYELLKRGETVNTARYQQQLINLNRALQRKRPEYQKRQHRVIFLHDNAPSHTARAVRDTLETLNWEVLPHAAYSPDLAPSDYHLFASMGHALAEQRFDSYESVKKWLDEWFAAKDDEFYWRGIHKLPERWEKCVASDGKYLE
T3 sequence (Q7JQ07 whole entry): as above

For `Oc1ccc([C@H]2c3c(O)cc(O)cc3[C@H]3c4c(cc(O)cc4C2C2c4cc(O)cc5c4[C@H](c4cc(O)cc(O)c4[C@@H]2c2ccc(O)cc2)[C@@H](c2ccc(O)cc2)O5)O[C@@H]3c2ccc(O)cc2)cc1` (some centres unmarked) [isohopeaphenol], at MOS1, the “activity on MOS1” value is “not active”. In addition, the inhibition at 10 µM at HIV-1 IN [1] (setting [3]) is under 5%.

With `Oc1ccc(/C=C/c2cc(O)cc3c2[C@H](c2cc(O)cc(O)c2)[C@@H](c2ccc(O)cc2)O3)cc1` [(+)-E-ε-viniferin], the inhibition at 10 µM at HIV-1 IN [1] (setting [3]) was under 5%.

In the case of `Oc1ccc(/C=C/c2cc(O)cc3c2[C@@H](c2cc(O)cc4c2[C@H](c2cc(O)cc(O)c2)[C@@H](c2ccc(O)cc2)O4)[C@H](c2ccc(O)cc2)O3)cc1` [E-miyabenol C], at HIV-1 IN [1] (setting [3]), the inhibition at 10 µM was under 5%.

Regarding `Oc1ccc(C(O)C2c3cc(O)cc(O)c3[C@H](c3ccc(O)cc3)[C@H]2c2cc(O)cc(O)c2)cc1` (some centres unmarked) [leachianol G], the “inhibitory effect on 3′processing” value against HIV-1 IN [2] is listed as “low”. Moreover, the “activity on MOS1” value on MOS1 was “also active against MOS1 activities”. Moreover, the “activity against MOS1 in transposition assay” value at Mos1 transposase (MOS1) (10 µM) was “still active”. Besides, the inhibition at 25 µM on Mos1 transposase (MOS1) (25 µM, DMSO control as reference, read-out: inhibition of the whole MOS1 transposition activity) was over 50%. Further, the “differential effect between reactions: strand transfer / processed donor versus 3′processing / unprocessed donor” value on HIV-1 IN [1] was “more active on strand transfer reaction than”. Moreover, the “inhibitory efficiency compared with raltegravir” value against HIV-1 IN [1] (concerted integration, increasing concentrations) was “inhibitory efficiencies close to raltegravir”. For the same compound, the “inhibition of concerted integration from processed and unprocessed donor” value (from here on “inhibition of concerted integration”) at HIV-1 IN [1] (increasing concentrations) is listed as “inhibited both activities”. Besides, the inhibition at 50 µM at HIV-1 IN [1] (setting [3]) lay in the range of 30 to 60%.

With `OCC1OC(Oc2cc(O)cc(C=Cc3ccc(O)cc3)c2)C(O)C(O)C1O` (centres unmarked) [E-piceid], the “activity on MOS1” value on MOS1 was “not active”. Moreover, the “differential effect between reactions: strand transfer / processed donor versus 3′processing / unprocessed donor” value at HIV-1 IN [1] was “more active on strand transfer reaction than”. Moreover, on HIV-1 IN [1] (increasing concentrations), the “inhibition of concerted integration” value is reported as “inhibited both activities”.

In the case of `Oc1ccc(/C=C/c2cc(O)cc3c2[C@H](c2cc(O)cc(O)c2)[C@@H](c2ccc(O)c(O)c2)O3)cc1` [E-scirpusin A], on HIV-1 IN [2], the “inhibitory effect on 3′processing” value is on record as “low”. The “inhibition of concerted integration” value at HIV-1 IN [1] (increasing concentrations) is listed as “inhibited both activities”.

As to `Cc1nnc(C(=O)NC(C)(C)c2nc(C(=O)NCc3ccc(F)cc3)c(O)c(=O)n2C)o1` [raltegravir, reference compound], at HIV-1 IN [2], the “inhibitory effect on 3′processing” value is “inhibition property than the selected compounds”. Moreover, at HIV-1 IN [1] (increasing concentrations), the “inhibition of concerted integration” value is “always found better inhibitor than the selected compounds”.

`Oc1cc(O)cc(-c2cc3ccc(O)cc3o2)c1` [moracin M]: the inhibition at 10 µM at HIV-1 IN [1] (setting [3]) was under 5%.

As for `Oc1ccc(/C=C/c2cc(O)cc(O)c2)cc1` [E-resveratrol], on HIV-1 IN [2], the “inhibitory effect on 3′processing” value is reported as “showed an inhibitory effect”. Moreover, the “activity on MOS1” value at MOS1 is “not active”. Besides, at HIV-1 IN [1], the “differential effect between reactions: strand transfer / processed donor versus 3′processing / unprocessed donor” value is given as “reaction than on integration”. The “effect on integration from the processed DNA” value on HIV-1 IN [1] (processed donor DNA (strand transfer), increasing concentrations) is listed as “without having any detectable effect”. For the same compound, the “inhibition of integration from the unprocessed substrate” value against HIV-1 IN [1] (unprocessed donor DNA, increasing concentrations) was “inhibit integration from the unprocessed substrate”.

With `Oc1ccc([C@H]2Oc3cc(O)cc(/C=C/c4ccc5c(c4)[C@@H](c4cc(O)cc6c4[C@H](c4cc(O)cc(O)c4)[C@@H](c4ccc(O)cc4)O6)[C@H](c4ccc(O)cc4)O5)c3[C@@H]2c2cc(O)cc(O)c2)cc1` [vitisin B, E-vitisin B], the “activity against MOS1 in transposition assay” value is “still active” on Mos1 transposase (MOS1) (10 µM) and “active against MOS1” on Mos1 transposase (MOS1) (25 µM). Moreover, the inhibition at 10 µM at HIV-1 IN [1] (setting [3]) was under 5%.

For `Oc1ccc([C@@H]2c3c(O)cc(O)cc3[C@H]3c4c(cc(O)cc4[C@H]2O)O[C@@H]3c2ccc(O)cc2)cc1` [ampelopsin A], the inhibition at 10 µM on HIV-1 IN [1] (setting [3]) is under 5%.

The record behind these values is article PMC3842960, “Natural Stilbenoids Isolated from Grapevine Exhibiting Inhibitory Effects against HIV-1 Integrase and Eukaryote MOS1 Transposase In Vitro Activities” (PLoS ONE, 2013).
